Data set [1] has as its system A2780 ovarian carcinoma cells. Put plainly: Antiproliferative activity on A2780 cells (MTT). The class given is cell-based, human. To be noted: Homo sapiens, A2780, 96 h, four days of incubation, read-out: Cellular activity pIC50 (converted). Put shortly: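 A2780 ovarian carcinoma cells were seeded at 1500 cells/well and exposed to compound for four days, with DMSO ≤0.1%. Viability was measured by MTT (2 h, 37° C) and expressed as a percentage of untreated controls after blank subtraction. Initial single-point testing was at 10^−6 M, then full curves gave pIC50.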

In data set [2] the target is histone deacetylase (HeLa nuclear extracts). As to the kind of experiment: In vitro assay for inhibition of histone deacetylase. The class given is biochemical. To be noted: [3H]acetylated histone H4 peptide substrate.
Data set [3] is described as follows: Kinetic solubility in aqueous media (nephelometry). The class given is physicochemical. The note with it: phosphate citrate buffer, pH 7.4, aqueous buffer, kinetic from dmso stock, phosphate citrate buffer pH 7.4, turbidity of three dilution steps; read-out: Solubility Score. Put shortly:
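DMSO stock (5 mM) diluted in three consecutive steps into phosphate citrate buffer pH 7.4, in triplicate; turbidity of each dilution read by nephelometry immediately after the last step. Compounds ranked into 3 classes: score 3 if first dilution clear, 2 if first unclear but second clear.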

Consider 30 compounds from patent publication US7205304B2, “Sulfonyl-Derivatives as novel inhibitors of histone deacetylase” (Janssen Pharmaceutica N.V., priority 2002, dated 2007).

The structures appear in SMILES notation. Converted amounts (≈) assume the structure as drawn.

Turning to `O=C(NO)c1cnc(N2CCN(S(=O)(=O)c3ccc(-c4ccccc4OCCN4CCCC4)cc3)CC2)nc1` (hydrate or solvate) [Co. No. 125], the melting point (usually the temperature of the solid-liquid transition) amounted to 146.9 °C.
In the case of `CN(C)Cc1sccc1-c1ccc(S(=O)(=O)N2CCN(c3ncc(C(=O)NO)cn3)CC2)cc1` [Co. No. 124], the melting point came to 192 °C.
For `O=C(NO)c1cnc(N2CCN(S(=O)(=O)c3ccc(-c4cccc(CCN5CCCC5)c4)cc3)CC2)nc1` [Co. No. 127], the melting point came to 243 °C.
Compound `CC(=O)Nc1ccc(N2CCN(S(=O)(=O)c3ccc4ccccc4c3)CC2)cc1` [Compound 3] had a melting point of 200 °C. Also, the IC50 in data set [1] was greater than 10000 nM. The “Enzyme activity pIC50” value in data set [2] is on record as less than 5. For the same compound, the solubility (commonly the concentration that dissolves in the medium under given conditions) in data set [3] was less than 75.8 µM.
Taken in the same sequence, the figures for `O=C(NO)Nc1ccc(N2CCN(S(=O)(=O)c3ccc4ccccc4c3)CC2)cc1` [Compound 4] were 210 °C, greater than 10000 nM, less than 5 and 75.8 to 454 µM (≈ 32.3 to 194 µg/mL).
For the compound `Cn1cnc(C(=O)Nc2ccc(N3CCN(S(=O)(=O)c4ccc5ccccc5c4)CC3)cc2)c1` [Compound 5], the melting point was determined as 252 °C. Besides, the IC50 in data set [1] was greater than 10000 nM. For the same compound, the “Enzyme activity pIC50” value in data set [2] is listed as less than 5.
Taken in the same sequence, the figures for `O=C(Nc1ccc(N2CCN(S(=O)(=O)c3ccc4ccccc4c3)CC2)cc1)/C(Cc1ccccc1)=N/O` [Compound 9] were 226 °C, 3880 nM and less than 5.
Regarding `CC(=O)SCC(=O)c1ccc(N2CCN(S(=O)(=O)c3ccc4ccccc4c3)CC2)cc1` [Compound 10], the melting point is 179 °C. Also, the IC50 in data set [1] is greater than 10000 nM. Also, the “Enzyme activity pIC50” value in data set [2] was 6.7. Moreover, the solubility in data set [3] was less than 75.8 µM.
Take `O=C(NO)c1ccc(N2CCN(S(=O)(=O)c3ccc4ccccc4c3)CC2)cc1C(F)(F)F` [Compound 11]: the melting point was determined as 196 °C. Also, in data set [1], the IC50 was 1010 nM. In data set [2], the “Enzyme activity pIC50” value is given as less than 5.
In turn, `CCOc1nc(N2CCN(S(=O)(=O)c3ccc4ccccc4c3)CC2)ncc1C(=O)NO` [Compound 12] registered a melting point of 197 °C. Moreover, the IC50 in data set [1] was 8200 nM. In data set [2], the “Enzyme activity pIC50” value is reported as less than 5.
On to `Nc1ccccc1NC(=O)c1cnc(N2CCN(S(=O)(=O)c3ccc4ccccc4c3)CC2)nc1` [Compound 13], for which the melting point came to 238 °C. Further, the IC50 in data set [1] is 442 nM. Moreover, the “Enzyme activity pIC50” value in data set [2] is less than 5. For the same compound, the solubility in data set [3] was less than 75.8 µM.
Regarding `CN(C)C(=O)c1ccc(N2CCN(S(=O)(=O)c3ccc4ccccc4c3)CC2)nn1` [Compound 113], the melting point amounted to 200 °C. The IC50 in data set [1] was greater than 10000 nM. Also, the “Enzyme activity pIC50” value in data set [2] is recorded as less than 5.
As for `CN(C)c1nc(N2CCN(S(=O)(=O)c3ccc4ccccc4c3)CC2)ncc1C(=O)NO` [Compound 115], the melting point is 135 °C. Moreover, in data set [1], the IC50 was 2020 nM. Further, the “Enzyme activity pIC50” value in data set [2] was less than 5.
Take `O=C(NO)c1cnc(N2CCN(S(=O)(=O)c3ccc4ccccc4c3)CC2)cn1` [Compound 116]: the melting point was determined as 249 °C. Also, the IC50 in data set [1] was 861 nM. Also, the “Enzyme activity pIC50” value in data set [2] was found to be 7.159. The solubility in data set [3] is less than 75.8 µM.
`NC(=O)C1CN(c2ncc(C(=O)NO)cn2)CCN1S(=O)(=O)c1ccc2ccccc2c1` (stereo not drawn) [Compound 118] came in with a melting point of 210 °C. Moreover, the IC50 in data set [1] is 5300 nM. For the same compound, the “Enzyme activity pIC50” value in data set [2] came to 6.741. Further, the solubility in data set [3] was greater than 454 µM.
Compound `O=C(NO)c1cnc(N2CCN(S(=O)(=O)c3ccc4ccccc4c3)CC2)nc1NO` [Compound 119] gave a melting point of 225 °C. Moreover, the IC50 in data set [1] is greater than 10000 nM. Besides, the “Enzyme activity pIC50” value in data set [2] worked out at 5.215.
With `O=C(NO)c1cnc(N2CCN(S(=O)(=O)c3ccc4ccccc4c3)C(C(=O)NO)C2)nc1` (stereo not drawn) [Compound 122], the melting point came to 166 °C. Moreover, the IC50 in data set [1] is greater than 10000 nM. Moreover, the “Enzyme activity pIC50” value in data set [2] is reported as 7.06.
As for `CC(C)N(C)CCc1cccc(-c2ccc(S(=O)(=O)N3CCN(c4ncc(C(=O)NO)cn4)CC3)cc2)c1` [Compound 173], the IC50 in data set [1] is 70.5 nM. Besides, the “Enzyme activity pIC50” value in data set [2] is recorded as 8.423. The solubility in data set [3] was greater than 454 µM.
Take `CN1CCN(CCc2cccc(-c3ccc(S(=O)(=O)N4CCN(c5ncc(C(=O)NO)cn5)CC4)cc3)c2)CC1` [Compound 174]: the IC50 in data set [1] is 80.4 nM. Further, the “Enzyme activity pIC50” value in data set [2] was determined as 8.212. Moreover, the solubility in data set [3] was greater than 454 µM.
For `COc1ccc(-c2ccc(S(=O)(=O)N3CCN(c4ncc(C(=O)NO)cn4)CC3)cc2)cc1` [Compound 175], the IC50 in data set [1] is 68.9 nM. The “Enzyme activity pIC50” value in data set [2] came to 7.691. In data set [3], the solubility is less than 75.8 µM.
As to `O=C(NO)c1cnc(N2CCN(S(=O)(=O)c3ccc(-c4cc(Cl)cc(Cl)c4)cc3)CC2)nc1` [Compound 176], the IC50 in data set [1] was 828 nM. For the same compound, the “Enzyme activity pIC50” value in data set [2] came to 6.513. Moreover, in data set [3], the solubility is 75.8 to 454 µM (≈ 38.5 to 231 µg/mL).
As to `O=C(NO)c1cnc(N2CCN(S(=O)(=O)c3ccc(-c4ccc(Cl)c(Cl)c4)cc3)CC2)nc1` [Compound 177], the IC50 in data set [1] was 308 nM. Further, in data set [2], the “Enzyme activity pIC50” value amounted to 6.428. Moreover, the solubility in data set [3] was less than 75.8 µM.
For `O=C(NO)c1cnc(N2CCN(S(=O)(=O)c3ccc(-c4ccc(F)cc4)cc3)CC2)nc1` [Compound 178], the IC50 in data set [1] was 75.5 nM. For the same compound, the “Enzyme activity pIC50” value in data set [2] is on record as 7.99. In addition, the solubility in data set [3] was less than 75.8 µM.
Taken in the same sequence, the figures for `Cc1ccc(-c2ccc(S(=O)(=O)N3CCN(c4ncc(C(=O)NO)cn4)CC3)cc2)cc1` [Compound 179] were 119 nM, 7.146 and 75.8 to 454 µM (≈ 34.4 to 206 µg/mL).
As to `CN(C)c1ccc2cc(S(=O)(=O)N3CCN(c4ncc(C(=O)NO)cn4)CC3)ccc2c1` [Compound 181], in data set [1], the IC50 was 119 nM. In data set [2], the “Enzyme activity pIC50” value is 7.098. Further, the solubility in data set [3] is greater than 454 µM.
`O=C(NO)c1cnc(N2CCN(S(=O)(=O)c3ccc(-c4ccccn4)s3)CC2)nc1` [Compound 182]: the IC50 in data set [1] is 87.1 nM. The “Enzyme activity pIC50” value in data set [2] is 7.634. Moreover, in data set [3], the solubility was less than 75.8 µM.
`O=C(NO)c1cnc(N2CCN(S(=O)(=O)c3ccc(S(=O)(=O)c4ccccc4)s3)CC2)nc1` [Compound 183]: in data set [1], the IC50 was 2320 nM. Further, in data set [2], the “Enzyme activity pIC50” value is 7.631. Further, the solubility in data set [3] is 75.8 to 454 µM (≈ 38.6 to 232 µg/mL).
As for `O=C(NO)c1cnc(N2CCN(S(=O)(=O)c3ccc(-c4ccc(Cl)cc4)cc3)CC2)nc1` [Compound 184], the IC50 in data set [1] is 62.8 nM. The “Enzyme activity pIC50” value in data set [2] is listed as 7.22. Moreover, the solubility in data set [3] was less than 75.8 µM.
Take `O=C(NO)c1cnc(N2CCN(S(=O)(=O)c3ccc(-c4ccc(C(F)(F)F)cc4)cc3)CC2)nc1` [Compound 185]: the IC50 in data set [1] was 160 nM. In addition, the “Enzyme activity pIC50” value in data set [2] came to 6.417. The solubility in data set [3] was less than 75.8 µM.
`CN(c1ccccc1)c1ccc2cc(S(=O)(=O)N3CCN(c4ncc(C(=O)NO)cn4)CC3)ccc2c1` [Compound 186]: the IC50 in data set [1] is 558 nM. Also, in data set [2], the “Enzyme activity pIC50” value is recorded as 6.539. For the same compound, the solubility in data set [3] lay in the range of 75.8 to 454 µM (≈ 39.3 to 236 µg/mL).
